In paper PMC10004634 (PLOS ONE, 2023):
Where two headings read alike, the source gives them in different places.

Key:
Experiment in all cases: biochemical
Design in all cases: KINOMEscan scanMAX competition binding, DNA-tagged kinases, qPCR read-out, percent control at 300 nM
FES = FES (Homo sapiens, UniProt P07332)
ERBB4 = ERBB4 (Homo sapiens, UniProt Q15303)
MET(Y1235D) = MET(Y1235D) (Homo sapiens, UniProt P08581, Y1235D)
TBK1 = TBK1 (Homo sapiens, UniProt Q9UHD2)
ERK8 = biological target: T1, ERK8 (Homo sapiens, UniProt Q8TD08)
T1 construct: gene MAPK15

AKT2 = AKT2 (Homo sapiens, UniProt P31751)
WEE2 = WEE2 (Homo sapiens, UniProt P0C1S8)
[1] = biological target: T2, ABL1(H396P)-nonphosphorylated (Homo sapiens, UniProt P00519, H396P)
T2 construct: nonphosphorylated

ARK5 = biological target: T3, ARK5 (Homo sapiens, UniProt O60285)
T3 construct: gene NUAK1
T3 sequence (O60285 whole entry): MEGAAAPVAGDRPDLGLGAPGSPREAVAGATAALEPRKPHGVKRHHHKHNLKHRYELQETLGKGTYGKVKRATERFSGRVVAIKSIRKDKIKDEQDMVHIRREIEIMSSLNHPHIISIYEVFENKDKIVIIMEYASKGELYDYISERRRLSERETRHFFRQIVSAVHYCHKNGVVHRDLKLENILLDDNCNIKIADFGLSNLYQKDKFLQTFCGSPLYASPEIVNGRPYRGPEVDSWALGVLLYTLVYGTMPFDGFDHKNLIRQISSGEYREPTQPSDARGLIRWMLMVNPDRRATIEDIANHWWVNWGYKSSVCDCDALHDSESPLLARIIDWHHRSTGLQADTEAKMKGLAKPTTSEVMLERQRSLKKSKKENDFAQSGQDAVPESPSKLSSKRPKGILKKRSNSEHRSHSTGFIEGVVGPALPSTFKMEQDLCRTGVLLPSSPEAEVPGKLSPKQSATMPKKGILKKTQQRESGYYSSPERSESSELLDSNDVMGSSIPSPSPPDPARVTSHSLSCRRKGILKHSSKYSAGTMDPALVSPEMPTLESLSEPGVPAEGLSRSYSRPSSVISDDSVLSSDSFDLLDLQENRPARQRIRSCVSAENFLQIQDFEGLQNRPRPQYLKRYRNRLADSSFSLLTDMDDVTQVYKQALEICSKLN

[2] = biological target: T4, RSK4(Kin.Dom.1-N-terminal) (Homo sapiens, UniProt Q9UK32)
T4 construct: gene RPS6KA6; Kin.Dom.1-N-terminal
T4 sequence (Q9UK32 whole entry): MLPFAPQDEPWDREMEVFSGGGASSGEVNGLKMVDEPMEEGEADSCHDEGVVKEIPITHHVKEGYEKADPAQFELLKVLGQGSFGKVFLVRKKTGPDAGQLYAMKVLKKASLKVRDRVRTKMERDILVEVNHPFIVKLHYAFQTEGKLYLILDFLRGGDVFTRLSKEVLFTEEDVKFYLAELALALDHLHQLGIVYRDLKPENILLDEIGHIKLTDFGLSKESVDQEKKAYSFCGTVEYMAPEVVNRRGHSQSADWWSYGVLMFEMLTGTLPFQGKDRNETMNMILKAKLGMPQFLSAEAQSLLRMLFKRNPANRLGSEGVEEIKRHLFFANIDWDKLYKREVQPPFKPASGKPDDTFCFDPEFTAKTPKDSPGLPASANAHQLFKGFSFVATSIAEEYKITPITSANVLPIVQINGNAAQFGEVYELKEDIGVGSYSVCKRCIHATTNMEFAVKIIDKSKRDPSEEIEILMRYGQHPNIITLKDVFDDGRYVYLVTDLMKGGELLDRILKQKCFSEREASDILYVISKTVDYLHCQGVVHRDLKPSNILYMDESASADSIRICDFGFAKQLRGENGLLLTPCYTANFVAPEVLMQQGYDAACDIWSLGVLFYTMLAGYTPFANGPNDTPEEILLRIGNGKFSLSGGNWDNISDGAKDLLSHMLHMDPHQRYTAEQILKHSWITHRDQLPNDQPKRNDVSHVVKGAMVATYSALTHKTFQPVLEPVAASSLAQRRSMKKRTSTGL

MLK3 = biological target: T5, MLK3 (Homo sapiens, UniProt Q16584)
T5 construct: gene MAP3K11

KIT(L576P) = KIT(L576P) (Homo sapiens, UniProt P10721, L576P)
SNRK = SNRK (Homo sapiens, UniProt Q9NRH2)
LOK = biological target: T6, LOK (Homo sapiens, UniProt O94804)
T6 construct: gene STK10
T6 sequence (O94804 whole entry): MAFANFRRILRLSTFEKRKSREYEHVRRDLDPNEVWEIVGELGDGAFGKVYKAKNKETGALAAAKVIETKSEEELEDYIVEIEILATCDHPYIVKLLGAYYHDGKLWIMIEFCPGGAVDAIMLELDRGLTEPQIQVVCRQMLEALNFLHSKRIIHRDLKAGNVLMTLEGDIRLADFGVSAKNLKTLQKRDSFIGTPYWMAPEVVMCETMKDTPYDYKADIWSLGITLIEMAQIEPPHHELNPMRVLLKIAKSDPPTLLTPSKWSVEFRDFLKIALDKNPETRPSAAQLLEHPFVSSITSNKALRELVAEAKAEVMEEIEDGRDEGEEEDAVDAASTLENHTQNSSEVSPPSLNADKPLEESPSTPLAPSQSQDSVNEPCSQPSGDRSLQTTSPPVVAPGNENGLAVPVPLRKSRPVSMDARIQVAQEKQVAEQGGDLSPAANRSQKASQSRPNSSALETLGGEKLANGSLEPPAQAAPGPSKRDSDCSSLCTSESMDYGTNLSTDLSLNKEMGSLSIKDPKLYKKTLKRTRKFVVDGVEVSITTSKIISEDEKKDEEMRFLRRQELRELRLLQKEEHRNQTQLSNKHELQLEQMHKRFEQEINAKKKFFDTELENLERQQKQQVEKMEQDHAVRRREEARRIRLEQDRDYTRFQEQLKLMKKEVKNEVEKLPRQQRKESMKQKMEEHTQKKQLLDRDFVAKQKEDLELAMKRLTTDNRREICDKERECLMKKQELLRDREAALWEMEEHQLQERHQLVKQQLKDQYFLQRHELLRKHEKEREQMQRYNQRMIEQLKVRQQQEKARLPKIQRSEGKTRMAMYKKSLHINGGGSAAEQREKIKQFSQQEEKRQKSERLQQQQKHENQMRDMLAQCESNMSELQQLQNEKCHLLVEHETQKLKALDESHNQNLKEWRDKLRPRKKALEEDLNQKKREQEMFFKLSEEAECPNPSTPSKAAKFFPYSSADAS

PIM1 = PIM1 (Homo sapiens, UniProt P11309)
NIM1 = biological target: T7, NIM1 (Homo sapiens, UniProt Q8IY84)
T7 construct: gene NIM1K
T7 sequence (Q8IY84 whole entry): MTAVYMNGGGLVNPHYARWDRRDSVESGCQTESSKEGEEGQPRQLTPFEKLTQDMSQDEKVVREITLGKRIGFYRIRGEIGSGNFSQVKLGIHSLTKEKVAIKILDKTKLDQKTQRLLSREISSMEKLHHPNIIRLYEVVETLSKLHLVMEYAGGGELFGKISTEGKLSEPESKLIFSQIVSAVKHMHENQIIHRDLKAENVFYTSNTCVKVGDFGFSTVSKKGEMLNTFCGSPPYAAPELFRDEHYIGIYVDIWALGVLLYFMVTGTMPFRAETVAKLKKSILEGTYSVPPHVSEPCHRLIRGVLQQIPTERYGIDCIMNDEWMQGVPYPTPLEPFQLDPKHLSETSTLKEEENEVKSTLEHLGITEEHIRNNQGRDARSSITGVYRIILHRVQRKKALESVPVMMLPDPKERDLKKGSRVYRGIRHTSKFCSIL

[3] = biological target: T8, ABL1(Y253F)-phosphorylated (Homo sapiens, UniProt P00519, Y253F)
T8 construct: phosphorylated

CAMK2D = CAMK2D (Homo sapiens, UniProt Q13557)
EPHB3 = EPHB3 (Homo sapiens, UniProt P54753)
SGK3 = SGK3 (Homo sapiens, UniProt Q96BR1)
MAP3K15 = MAP3K15 (Homo sapiens, UniProt Q6ZN16)
BMPR1B = BMPR1B (Homo sapiens, UniProt O00238)
[4] = biological target: T9, RPS6KA5(Kin.Dom.1-N-terminal) (Homo sapiens, UniProt O75582)
T9 construct: Kin.Dom.1-N-terminal

[5] = read-out: Percent control / Acalabrutinib
[6] = read-out: Percent control / Ibrutinib
[7] = read-out: Percent control / Tirabrutinib
[8] = read-out: Percent control / Zanubrutinib

FES, sequence (P07332 whole entry): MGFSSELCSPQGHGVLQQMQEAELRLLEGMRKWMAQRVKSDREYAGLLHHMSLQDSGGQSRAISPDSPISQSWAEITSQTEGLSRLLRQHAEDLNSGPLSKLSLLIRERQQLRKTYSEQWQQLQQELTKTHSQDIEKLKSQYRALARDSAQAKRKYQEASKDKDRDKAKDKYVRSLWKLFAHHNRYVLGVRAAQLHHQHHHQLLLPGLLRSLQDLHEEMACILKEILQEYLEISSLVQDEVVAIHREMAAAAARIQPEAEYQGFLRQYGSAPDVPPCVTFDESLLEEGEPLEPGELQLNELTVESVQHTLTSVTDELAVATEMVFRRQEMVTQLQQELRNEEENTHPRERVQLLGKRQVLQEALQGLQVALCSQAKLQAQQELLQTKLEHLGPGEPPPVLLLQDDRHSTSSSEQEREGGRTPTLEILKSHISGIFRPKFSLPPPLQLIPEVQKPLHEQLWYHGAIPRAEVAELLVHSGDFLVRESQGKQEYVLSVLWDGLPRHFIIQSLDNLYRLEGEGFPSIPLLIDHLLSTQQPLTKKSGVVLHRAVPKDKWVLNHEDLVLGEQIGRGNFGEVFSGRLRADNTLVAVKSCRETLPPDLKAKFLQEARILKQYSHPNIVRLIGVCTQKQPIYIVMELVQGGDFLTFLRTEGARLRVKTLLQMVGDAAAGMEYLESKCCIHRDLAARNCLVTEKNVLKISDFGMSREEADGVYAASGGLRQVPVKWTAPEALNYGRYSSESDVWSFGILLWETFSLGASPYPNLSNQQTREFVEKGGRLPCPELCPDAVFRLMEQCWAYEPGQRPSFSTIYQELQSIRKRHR
MET(Y1235D), sequence (P08581 whole entry Y1235D): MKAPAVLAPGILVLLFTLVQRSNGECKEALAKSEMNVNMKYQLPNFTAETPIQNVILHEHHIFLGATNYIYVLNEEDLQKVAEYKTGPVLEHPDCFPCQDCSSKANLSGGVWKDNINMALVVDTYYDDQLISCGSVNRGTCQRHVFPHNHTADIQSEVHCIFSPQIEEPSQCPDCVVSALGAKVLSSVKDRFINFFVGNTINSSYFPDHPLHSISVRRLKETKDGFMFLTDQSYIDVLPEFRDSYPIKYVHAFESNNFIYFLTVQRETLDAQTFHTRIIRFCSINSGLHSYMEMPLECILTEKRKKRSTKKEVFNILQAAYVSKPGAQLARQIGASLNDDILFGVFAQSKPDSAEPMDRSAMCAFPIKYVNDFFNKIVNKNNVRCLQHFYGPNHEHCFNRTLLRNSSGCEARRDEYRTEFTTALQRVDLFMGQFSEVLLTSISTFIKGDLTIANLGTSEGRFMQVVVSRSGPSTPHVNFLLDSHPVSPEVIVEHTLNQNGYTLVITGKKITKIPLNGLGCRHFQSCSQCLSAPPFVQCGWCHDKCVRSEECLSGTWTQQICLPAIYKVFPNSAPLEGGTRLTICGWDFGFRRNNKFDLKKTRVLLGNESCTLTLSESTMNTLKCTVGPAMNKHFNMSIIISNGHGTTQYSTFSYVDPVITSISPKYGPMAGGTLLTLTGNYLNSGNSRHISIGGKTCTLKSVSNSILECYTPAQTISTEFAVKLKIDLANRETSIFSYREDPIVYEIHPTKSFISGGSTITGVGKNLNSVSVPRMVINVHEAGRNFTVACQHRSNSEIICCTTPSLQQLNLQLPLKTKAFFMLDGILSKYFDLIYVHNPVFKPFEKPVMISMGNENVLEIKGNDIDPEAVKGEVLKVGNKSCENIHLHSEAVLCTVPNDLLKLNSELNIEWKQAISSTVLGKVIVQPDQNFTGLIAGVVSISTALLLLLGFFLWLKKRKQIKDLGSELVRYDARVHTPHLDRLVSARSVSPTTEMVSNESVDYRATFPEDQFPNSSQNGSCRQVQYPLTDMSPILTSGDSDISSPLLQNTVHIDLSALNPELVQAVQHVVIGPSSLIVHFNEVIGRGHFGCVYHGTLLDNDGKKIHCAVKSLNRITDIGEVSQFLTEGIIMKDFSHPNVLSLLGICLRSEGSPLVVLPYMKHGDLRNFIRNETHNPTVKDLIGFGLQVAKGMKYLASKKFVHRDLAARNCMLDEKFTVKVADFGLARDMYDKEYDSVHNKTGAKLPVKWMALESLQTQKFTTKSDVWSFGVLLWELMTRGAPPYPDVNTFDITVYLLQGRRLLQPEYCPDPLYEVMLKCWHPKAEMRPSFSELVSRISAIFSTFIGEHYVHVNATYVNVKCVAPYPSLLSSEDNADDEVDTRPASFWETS

CC#CC(=O)N1CCC[C@H]1c1nc(-c2ccc(C(=O)Nc3ccccn3)cc2)c2c(N)nccn12 [Acalabrutinib]
remaining binding at 0.3 µM (FES; [5]): 90% | remaining binding at 0.3 µM (ERBB4; [5]): 7.7% | remaining binding at 0.3 µM (MET(Y1235D); [5]): 86% | remaining binding at 0.3 µM (TBK1; [5]): 91% | remaining binding at 0.3 µM (ERK8; [5]): 88% | remaining binding at 0.3 µM (AKT2; [5]): 87% | remaining binding at 0.3 µM (WEE2; [5]): 89% | remaining binding at 0.3 µM [1, 5]: 85% | remaining binding at 0.3 µM (ARK5; [5]): 69% | remaining binding at 0.3 µM [2, 5]: 82% | remaining binding at 0.3 µM (MLK3; [5]): 87% | remaining binding at 0.3 µM (KIT(L576P); [5]): 86% | remaining binding at 0.3 µM (SNRK; [5]): 93% | remaining binding at 0.3 µM (LOK; [5]): 99% | remaining binding at 0.3 µM (PIM1; [5]): 94% | remaining binding at 0.3 µM (NIM1; [5]): 99% | remaining binding at 0.3 µM [3, 5]: 90% | remaining binding at 0.3 µM (CAMK2D; [5]): 93% | remaining binding at 0.3 µM (EPHB3; [5]): 91% | remaining binding at 0.3 µM (SGK3; [5]): 94%

C=CC(=O)N1CCC[C@@H](n2nc(-c3ccc(Oc4ccccc4)cc3)c3c(N)ncnc32)C1 [Ibrutinib]
remaining binding at 0.3 µM (ERBB4; [6]): 0.15% | remaining binding at 0.3 µM (WEE2; [6]): 93% | remaining binding at 0.3 µM [1, 6]: 31% | remaining binding at 0.3 µM (KIT(L576P); [6]): 72% | remaining binding at 0.3 µM (MAP3K15; [6]): 96%

CC#CC(=O)N1CC[C@@H](n2c(=O)n(-c3ccc(Oc4ccccc4)cc3)c3c(N)ncnc32)C1 [Tirabrutinib]
remaining binding at 0.3 µM (BMPR1B; [7]): 98% | remaining binding at 0.3 µM [4, 7]: 80%

C=CC(=O)N1CCC([C@@H]2CCNc3c(C(N)=O)c(-c4ccc(Oc5ccccc5)cc4)nn32)CC1 [Zanubrutinib]
remaining binding at 0.3 µM (FES; [8]): 100% | remaining binding at 0.3 µM (MET(Y1235D); [8]): 88% | remaining binding at 0.3 µM (TBK1; [8]): 93% | remaining binding at 0.3 µM (ERK8; [8]): 87% | remaining binding at 0.3 µM (AKT2; [8]): 82% | remaining binding at 0.3 µM (ARK5; [8]): 94% | remaining binding at 0.3 µM [2, 8]: 100% | remaining binding at 0.3 µM (MLK3; [8]): 98% | remaining binding at 0.3 µM (SNRK; [8]): 90% | remaining binding at 0.3 µM (LOK; [8]): 93% | remaining binding at 0.3 µM (PIM1; [8]): 73% | remaining binding at 0.3 µM (NIM1; [8]): 97% | remaining binding at 0.3 µM [3, 8]: 85% | remaining binding at 0.3 µM (CAMK2D; [8]): 80% | remaining binding at 0.3 µM (EPHB3; [8]): 96% | remaining binding at 0.3 µM (SGK3; [8]): 74% | remaining binding at 0.3 µM (MAP3K15; [8]): 54% | remaining binding at 0.3 µM (BMPR1B; [8]): 98% | remaining binding at 0.3 µM [4, 8]: 100%
